Results from paper PMC7570625, “Design and Synthesis of a Novel NIR Celecoxib-Based Fluorescent Probe for Cyclooxygenase-2 Targeted Bioimaging in Tumor Cells” (Molecules, 2020).

Target: T1, COX-2 (Homo sapiens, UniProt P35354)
T1 construct: gene PTGS2
T1 sequence (P35354 18-604): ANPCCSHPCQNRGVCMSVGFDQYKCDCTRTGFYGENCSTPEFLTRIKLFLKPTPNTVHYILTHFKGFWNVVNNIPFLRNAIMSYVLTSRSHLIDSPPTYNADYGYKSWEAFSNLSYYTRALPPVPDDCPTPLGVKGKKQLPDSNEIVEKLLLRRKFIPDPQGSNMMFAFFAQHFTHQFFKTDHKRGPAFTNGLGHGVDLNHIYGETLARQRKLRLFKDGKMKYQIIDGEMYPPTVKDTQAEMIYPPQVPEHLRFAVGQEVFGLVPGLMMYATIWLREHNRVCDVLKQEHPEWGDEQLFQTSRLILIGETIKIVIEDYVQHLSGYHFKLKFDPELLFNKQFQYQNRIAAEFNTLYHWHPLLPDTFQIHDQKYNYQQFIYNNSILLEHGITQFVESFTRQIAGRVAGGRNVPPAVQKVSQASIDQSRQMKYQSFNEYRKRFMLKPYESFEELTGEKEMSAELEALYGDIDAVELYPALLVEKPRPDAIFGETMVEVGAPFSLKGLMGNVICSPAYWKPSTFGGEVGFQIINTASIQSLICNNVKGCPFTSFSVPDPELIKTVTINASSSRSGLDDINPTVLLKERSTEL
Experiment: recombinant human COX-2 inhibition, PGE2 measured by UPLC-MS/MS
Assay type: biochemical

Q: Cc1ccc(-c2cc(CNC(=O)CCCCC[N+]3=C(/C=C/C=C/C=C4/N(C)c5ccccc5C4(C)C)C(C)(C)c4ccccc43)nn2-c2ccc(S(N)(=O)=O)cc2)cc1 [CCY-5] was tested. Which IC50 did it give?
A: 1.57 µM
